Assay results from EP1097716A1, “Dietary anti-adiposity food supplements and drugs based on thyrotropin-releasing hormone (TRH)” (Chronolife Inc., priority 1999, dated 2001).

Experiments:
[1] = Toxicity of increasing doses in the drinking water
old female mice = experiment: Chronic oral administration in drinking water, aging-related adiposity, body weight (Table 8); type: in vivo, BALB/cJ X C57BL/6 F1 female mice; details: n=15, Mean ± SD
Description: With other words, progressive alteration of pineal-hypothalamic-pituitary-peripheral endocrine glands function in the course of aging leads to the most typical appearance of decreased tolerance to glucose (hyperglycemia), increased levels of lipids, in particular triglycerides and cholesterol (hyperlipidemia) and progressive accumulation of fat, which is not obesity but the most common expression of hormonal derangements. TRH taken chronically will maintain normal body weight in normal aging mice, while the normal controls put on fat and weight.
The results reported in Table 8 clearly support the presumption that TRH is also capable of preventing onset of aging-related adiposity in humans.

[2] = aging mice (18 month-old mice) compared with young, e.g. three month-old mice; cited from earlier work
[3] = tested on: anterior hypothalamic area (AHA)-lesioned obese mice; experiment: 48-day intraperitoneal treatment of AHA-lesioned obese mice, body weight (Table 5); type: in vivo, C57BL/6 female mice; details: N=4, Mean ± SD
Description: C57BL/6 female mice aged 8 months (AHA-lesioned at 2 months of age to induce obesity), were injected intraperitoneally for 48 days at 6 pm (evening) with 0.5 ml volume containing 10 µg TRH-tartrate in bidistilled water. Controls were injected with the same amount of diluent.

[4] = 2 months treatment, blood levels of cholesterol and triglycerides in old mice (Table 9); type: in vivo, BALB/cJ female mice; details: 2 months treatment started in 20-month-old female mice, n = 10, dosages as for Table 7
Description: Evidence that the lipid related compounds whose proportions in the blood circulation of old mice have a cause different from those observed in young mice treated with TRH seems further indicated by the fact that the weight of 16 month-old female mice, thus older mice which tend to accumulate age-related adiposity, can also be controlled and even reduced by the adsorption of TRH (see table 8). Indeed the contents in lipid-related compounds in the blood circulation of older mice (20 month-old mice) treated with TRH remain substantially unaltered, as evidenced by the results shown in Table 9 hereafter. The dosages of TRH were the same as in the assay reported in relation to Table 7.

[5] = 20-day intraperitoneal treatment, blood levels of T3, T4 and TSH by radioimmunoassay in serum (Table 7); type: in vivo, C57BL/6 male mice; details: for T3 / T4 / TSH (µU/mL): serum, Mean ± SD
Description: This is shown by Table 7 hereafter which report the results of assays which were ran under the following conditions.
C57BL/6 male mice aged 9 months, were injected intraperitonealy for 20 days at 6 p.m. (evening) or at 8 a.m. (morning) with 0.5 ml volumes containing either 10 µg or 100 µg of TRH in bidistilled water. Controls were injected with the same amount of diluent. The mice were bled from the retroorbital venus plexus under rapid acute ether anaesthesia at 10 a.m. T3, T4 and TSH were measured by radioimmunoassay in the serum of individual mice. TABLE 7: […]

[6] = tested on: obese, anterior hypothalamic area (AHA)-lesioned mice; experiment: 20-day intraperitoneal treatment of obese AHA-lesioned mice, body weight (Table 3); type: in vivo, C57BL/6 male mice; details: N=6, Mean ± SD; for Body weight (g): p<0.05 vs before treatment
Description: C57BL/6 male mice aged 7 months (AHA-lesioned at 2 months of age to induce obesity), were injected intraperitoneally for 20 days at 6 pm (evening) with 0.5 ml volume containing 10 µg TRH-tartrate in bidistilled water. Controls were injected with the same amount of diluent.

[7] = TRH evening (6 p.m.) 10 µg i.p. for 20 days
[8] = TRH evening (6 p.m.) 100 µg i.p. for 20 days
[9] = TRH morning (8 a.m.) 10 µg i.p. for 20 days
[10] = TRH morning (8 a.m.) 100 µg i.p. for 20 days

COc1ccc2[nH]cc(CCNC(C)=O)c2c1 [melatonin]
toxicity [1]: not toxic

(pyro)Glu-His-Pro NH2 [TRH]
Body weight (g) before treatment (old female mice; 16 month-old female mice): 33.1 ± 3.2 (15) g | Body weight (g) after treatment (old female mice; TRH-tartrate in the drinking water (100µg/ml) for 5 months, started at 16 months of age): 33.8 ± 4.0 (15) g | levels of cholesterol, triglycerids and phospholipids [2]: brought back to values currently observed in young mice | Body weight ([3]; After 27 days of treatment, 10 µg TRH-tartrate i.p. daily at 6 pm): 39.2 ± 7.2 g | Body weight (g) ([3]; After 48 days of treatment, 10 µg TRH-tartrate i.p. daily at 6 pm, p<0.05 vs before treatment): 32.6 ± 4.4^∗ g | Body weight ([3]; Before treatment, AHA-lesioned female mice aged 8 months): 42.2 ± 6.4 g | CHOLESTEROL [4]: 1.65 ± 0.29 mmol/L | TRIGLYCERIDES [4]: 1.19 ± 0.46 mmol/L | T3 [5, 7]: 0.82 ± 0.08 nmol/L | T4 [5, 7]: 65.7 ± 4.2 nmol/L | TSH (µU/mL) [5, 7]: 0.005 ± 0.004 µU/mL | T3 [5, 8]: 0.91 ± 0.02 nmol/L | T4 [5, 8]: 68.7 ± 13.1 nmol/L | TSH (µU/mL) [5, 8]: 0.004 ± 0.005 µU/mL | T3 [5, 9]: 1.03 ± 0.07 nmol/L | T4 [5, 9]: 82.0 ± 1.9 nmol/L | TSH (µU/mL) [5, 9]: 0.009 ± 0.006 µU/mL | T3 [5, 10]: 0.84 ± 0.02 nmol/L | T4 [5, 10]: 74.9 ± 13.3 nmol/L | TSH (µU/mL) [5, 10]: 0.007 ± 0.005 µU/mL | acute toxicity ([5]; injected at huge dosages (up to 100 µg i.p. for 20 days)): lack of acute toxicity | Body weight ([6]; After 10 days of treatment, 10 µg TRH-tartrate i.p. daily at 6 pm): 33.7 ± 4.2 g | Body weight (g) ([6]; After 20 days of treatment, 10 µg TRH-tartrate i.p. daily at 6 pm): 32.0 ± 3.6^∗ g | Body weight (g) ([6]; After withdrawal period of 5 days following 20-day treatment): 31.1 ± 3.4^∗ g | Body weight ([6]; After withdrawal period of 60 days following 20-day treatment): 38.3 ± 5.9 g | Body weight ([6]; Before treatment, AHA-lesioned male mice aged 7 months): 39.0 ± 6.2 g
